# Source: patent publication US7662388B2, “Endogenous peptide and active subfragments thereof” (Innoventus Project AB, priority 2003, dated 2010)
# How the values were obtained:
# [1] = test system: Primary bovine adrenal cortex capillary endothelial (BCE) cells; assay: chemotaxis assay of synthetic peptides (Table 2); type: cell-based; conditions: for Inhibition of chemotaxis: 100 ng/ml peptide, FGF-2 10 ng/ml, BCE cells, 5 h; for inhibition of chemotaxis, stated in words: chemotaxis assay of table 2
# Method: Synthetic peptides were produced by Multiple Peptide Systems, San Diego Calif., USA, and dissolved in 1 mM ZnCl2/0.5xPBS at a stock concentration of 1 mg/ml. The sequences of the peptides were as follows:
# A migration assay was performed in a modified Boyden chamber as described earlier (Auerbach et al., 1991) using micropore polycarbonate filters (8 μm thick, 8 μm pore) coated with type-1 collagen solution at 100 μg/ml (Vitrogen 100, Collagen Corp). Primary bovine adrenal cortex capillary endothelial (BCE) cells were trypsinized and resuspended at a concentration of 7.5×10^5 cells/ml in Dulbecco's modified essential medium (Invitrogen) containing 0.25% BSA and Trasylol at 1000 KIE. The cell suspension was placed in the upper chamber. In the lower chamber below the filter was placed medium containing 0.25% BSA and when indicated, 10 ng/ml fibroblast growth factor (FGF-2; Peprotech). Recombinant HRGP produced in 293 cells, alternatively, synthetic peptides, all at a final concentration of 100 ng/ml (or as indicated), was placed in both chambers either alone or in combination with FGF-2. After 5 h at 37° C., the medium was removed and cells sticking to the filter were fixed in pure methanol and stained with Giemsa stain. The number of cells on the lower side of the filter was counted using an image analysis software (Easy Image Analysis) from TeknoOptik, Sweden. All samples were analyzed in series of at least six parallel wells for each treatment.
# primary BCE cells = assay: chemotaxis (migration) assay in modified Boyden chamber, BCE cells; type: cell-based, bovine; conditions: 100 ng/ml protein, FGF-2 5 ng/ml, 5 h
# Method: The porcine aortic endothelial (PAE) cell line overexpressing FGF receptor-1 (FGFR-1) (Wennström et al 1992) was cultured in Ham's F12/10% fetal bovine serum (FCS) and NIH 3T3 murine fibroblasts were cultured in Dulbecco's modified medium (DMEM)/10% newborn calf serum (NCS). F12, DMEM and serum were bought from Life Technologies. Primary bovine adrenal cortex capillary endothelial (BCE) cells were cultured on gelatin-coated dishes in DMEM/10% NCS and 2 ng/ml FGF-2 (Boehringer Mannheim). For chemotaxis assays, both PAE and NIH 3T3 cells were serum-starved over night in 0.1% BSA and BCE cells in 0.5% NCS. Human embryonic kidney (HEK) 293-EBNA cells were cultured in DMEM/10% FCS. Approximately every second month they were given 0.25 mg/ml G418 (Calbiochem) to ensure positive selection of the EBNA-1 expressing cells.
# (§1) A migration assay was performed in a modified Boyden chamber as described earlier (Auerbach et al., 1991) using micropore polycarbonate filters (8 μm thick, 8 μm pore) coated with type-1 collagen solution at 100 μg/ml (Vitrogen 100, Collagen Corp). BCE, PAE/FGFR-1 or NIH 3T3 cells were preincubated or not with HRGP (100 ng/ml) for 30 min, trypsinised and resuspended at a concentration of 7.5×10^5 cells/ml in Dulbecco's modified essential medium (Invitrogen) containing 0.25% BSA and Trasylol at 1000 KIE. FGF-2 and VEGF-A was used at 5 ng/ml, HRGP and the protein C inhibitor (PCI) at 100 ng/ml and BSA at 0.25%. After 5 h at 37° C., migrated cells were stained with Giemsa and counted using an image analysis software (Easy Image Analysis) from Tekno Optik AB, Sweden. All samples were analysed in at least six parallel wells for each treatment.
# endothelial cells = assay: chemotaxis of endothelial cells towards FGF-2, truncated HRGP proteins; type: cell-based; conditions: recombinant truncated forms of HRGP
# Method: as §1
# To determine which part of HRGP was responsible for the anti-angiogenic effect, recombinant truncated forms of the protein were produced (FIG. 5A). Truncated versions containing the C-terminal part of HRGP, but lacking an intact N-terminus, were not possible to produce, maybe due to instability.
# T241 fibrosarcoma cells = assay: fibrosarcoma tumour growth in mice (HRGP); type: in vivo; conditions: 14 days
# Method: Animal work was carried out at the local animal facility and was approved by the Uppsala University board of animal experimentation and thus performed according to the UKCCCR guidelines for the welfare of animals in experimental neoplasia (Workman et al (1988)). The mice were anesthetized with isoflurane (Forene; Abbott) during all manipulations. Female, 5 week old, C57BL6/1 mice (Mollegard/Bomhultgard, Denmark) were injected with 0.5×10^6 T241 fibrosarcoma cells subcutaneously (s.c.) into the left flank. Animals carrying palpable tumours were randomized (n=7-10 animals/treatment group) and received treatment with vehicle (PBS), 4 mg/kg/day of pHRGP or 5 mg/kg/day of human IgG or His-HRGP, given as daily subcutaneous injections in the right flank. The tumours were measured with a caliper once a day, in a blind procedure, and volumes were calculated by the formula […]. When the tumours reached the upper limit of 2 cm^3, the mice were sacrificed. Three animals in each group were perfused with 4% paraformaldehyde in PBS pH 7.4. Tumours were embedded in paraffin according to standard histological procedures and sectioned at […] thickness.
# C57/bl6 mice were inoculated subcutaneously with T241 fibrosarcoma cells on their left flank and when the tumours were palpable (after 4-6 days), a daily treatment was initiated with HRGP or control (PBS; FIG. 2A, or human IgG; FIG. 2B). Endostatin was included in one study for comparison (FIG. 2B). The treatment was given as subcutaneous injections in the right flank until the size of the control tumours reached the upper limit of […] (11 days; FIG. 2A, 14 days; FIG. 2B). Injections with both pHRGP (4 mg/kg/day) and His-HRGP (5 mg/kg/day) led to a drastic reduction in tumour growth and at the time of sacrifice, the size of the tumours was reduced by 67% (FIG. 2A) and 61% (FIG. 2B) respectively, compared to control-treated animals. Endostatin treatment (25 mg/kg/day) lacked significant inhibitory effect on tumour growth in this model (32% decrease).
molecule,measurement,setting,value
AHHPHEHDTHRQHPHG [Pep 10],Inhibition of chemotaxis,[1],+
Ac-AHHPHEHDTH-NH2 [Pep 13A],Inhibition of chemotaxis,[1],+
Ac-AHHPHEHDTHRQHPH-NH2 [Pep 12A],Inhibition of chemotaxis,[1],+
Ac-EHDTH-NH2 [Pep 15A],Inhibition of chemotaxis,[1],+
DLHPHEQHPHEHDTHG [Pep 11A],Inhibition of chemotaxis,[1],− (as compared to Pep 8 and Pep 11A)
same,"inhibition of chemotaxis, stated in words",[1],not to be effective
DLHPHKHHSHEQHPHG [Pep 8],Inhibition of chemotaxis,[1],− (as compared to Pep 8 and Pep 11A)
same,"inhibition of chemotaxis, stated in words",[1],not to be effective
KHHSHEQHPHGHHPHAHHPHEHDTHG [Pep 9A],Inhibition of chemotaxis,[1],+
"PCI: plasma protein of approximately the same mass as HRGP, specificity control (protein, UniProt P05154 26-406, looked up) Plasma serine protease …: EMKKRVEDLHVGATVAPSSRRDFTFDLYRALASAAPSQSIFFSPVSISMSLAMLSLGAGSSTKMQILEGLGLNLQKSSEKELHRGFQQLLQELNQPRDGFQLSLGNALFTDLVVDLQDTFVSAMKTLYLADTFPTNFRDSAGAMKQINDYVAKQTKGKIVDLLKNLDSNAVVIMVNYIFFKAKWETSFNHKGTQEQDFYVTSETVVRVPMMSREDQYHYLLDRNLSCRVVGVPYQGNATALFILPSEGKMQQVENGLSEKTLRKWLKMFKKRQLELYLPKFSIEGSYQLEKVLPSLGISNVFTSHADLSGISNHSNIQVSEMVHKAVVEVDESGTRAAAATGTIFTFRSARLNSQRLVFNRPFLMFIVDNNILFLGKVNRP",FGF-2-induced chemotaxis of BCE cells,primary BCE cells,no effect
"His 4: recombinant truncated version of HRGP that covers the complete central region (protein, listed as Homo sapiens) VSPTDCSAVEPEAEKALDLINKRRRDGYLFQLLRIADAHLDRVENTTVYYLVLDVQESDCSVLSRKYWNDCEPPDSRRPSEIVIGQCKVIATRHSHESQDLRVIDFNCTTSSVSSALANTKDSPVLIDFFEDTERYRKQANKALEKYKEENDDFASFRVDRIERVARVRGGEGTGYFVDFSVRNCPRHHFPRHPNVFGFCRADLFYDVEALDLESPKNLVINCEVFDPQEHENINGVPPHLGHPFHWGGHERSSTTKPPFKPHGSRDHHHPHKPHEHGPPPPPDERDHSHGPPLPQGPPPLLPMSCSSCQHATFGTNGAQRHSHNNNSSDLHPHKHHSHEQHPHGHHPHAHHPHEHDTHRQHPHGHHPHGHHPHGHHPHGHHPHGHHPHC",inhibition of chemotaxis of endothelial cells towards FGF-2,endothelial cells,did not inhibit endothelial cell chemotaxis
same,inhibition of chemotaxis of endothelial cells towards FGF-2,endothelial cells; listed as His4,failure of His4 to inhibit endothelial cell chemotaxis
"His-HRGP: recombinant full-length HRGP produced in HEK-293-EBNA cells with a His-tag (protein, left off: small tags and cut ends, recombinant full-length HRGP produced in HEK-293-EBNA cells with a His-tag) VSPTDCSAVEPEAEKALDLINKRRRDGYLFQLLRIADAHLDRVENTTVYYLVLDVQESDCSVLSRKYWNDCEPPDSRRPSEIVIGQCKVIATRHSHESQDLRVIDFNCTTSSVSSALANTKDSPVLIDFFEDTERYRKQANKALEKYKEENDDFASFRVDRIERVARVRGGEGTGYFVDFSVRNCPRHHFPRHPNVFGFCRADLFYDVEALDLESPKNLVINCEVFDPQEHENINGVPPHLGHPFHWGGHERSSTTKPPFKPHGSRDHHHPHKPHEHGPPPPPDERDHSHGPPLPQGPPPLLPMSCSSCQHATFGTNGAQRHSHNNNSSDLHPHKHHSHEQHPHGHHPHAHHPHEHDTHRQHPHGHHPHGHHPHGHHPHGHHPHGHHPHCHDFQDYGPCDPPPHNQGHCCHGHGPPPGHLRRRGPGKGPRPFHCRQIGSVYRLPPLRKGEVLPLPEANFPSFPLPHHKHPLKPDNQPFPQSVSESCPGKFKSGFPQVSMFFTHTFPK",reduction of tumour size compared to control-treated animals at sacrifice,"T241 fibrosarcoma cells; 5 mg/kg/day s.c. daily, control human IgG",61%
"Endostatin: anti-angiogenic factor included in one tumour study for comparison (protein, UniProt P39060 1572-1754, looked up, Endostatin, anti-angiogenic factor included in one tumour study for comparison) Endostatin: HSHRDFQPVLHLVALNSPLSGGMRGIRGADFQCFQQARAVGLAGTFRAFLSSRLQDLYSIVRRADRAAVPIVNLKDELLFPSWEALFSGSEGPLKPGARIFSFDGKDVLRHPTWPQKSVWHGSDPNGRRLTESYCETWRTEAPSATGQASSLLGGRLLGQSAASCHHAYIVLCIENSFMTASK",decrease of tumour growth,"T241 fibrosarcoma cells; 25 mg/kg/day, comparison",32%
"His 5: recombinant His/Pro-rich domain (central region) of human HRGP (protein, listed as Homo sapiens) HLGHPFHWGGHERSSTTKPPFKPHGSRDHHHPHKPHEHGPPPPPDERDHSHGPPLPQGPPPLLPMSCSSCQHATFGTNGAQRHSHNNNSSDLHPHKHHSHEQHPHGHHPHAHHPHEHDTHRQHPHGHHPHGHHPHGHHPHGHHPHGHHPHC",inhibition of chemotaxis of endothelial cells towards FGF-2,endothelial cells,inhibited chemotaxis
same,inhibition of chemotaxis of endothelial cells towards FGF-2,endothelial cells; listed as central region (His/Pro-rich domain) of human HRGP,inhibited chemotaxis as potently as the mature protein
same,inhibition of chemotaxis of endothelial cells towards FGF-2,endothelial cells; listed as central region of human HRGP,inhibit chemotaxis
